This note sets out measurements from patent publication US11214803B2, “Modulators of YAP1 expression” (Ionis Pharmaceuticals, Inc., priority 2019, dated 2022).

Data set [1] concerns SNU449 cells. The experiment in a line: Cell proliferation assay in SNU449 cells in combination with sorafenib, CellTiter-Glo (Example 48). The format is cell-based, human. To be noted: 144 hours. The method, then:
Modified oligonucleotides described in the studies above were tested at various doses in hepatocellular carcinoma cell line SNU449. ION No. 792169, described herein above, was used as a control modified oligonucleotide. ION No. 715487 was used to target Yap1 RNA. […] After approximately 48 hours, Yap1 mRNA levels were measured.
144 hours post treatment, proliferation of SNU449 cells was measured using the luminescent cell viability CellTiter-Glo® 2.0 Assay (Promega). Results are presented in the tables below as percent control of the amount of luminescence in samples treated with modified oligonucleotides relative to untreated control cells (% UTC).

Data set [2] is described as follows: Tolerability in Sprague-Dawley rats, plasma chemistry markers (Example 20). The settings on record: male Sprague-Dawley rats, 50 mg/kg s.c. weekly for 6 weeks (7 doses), 48 hours after last dose. Format: in vivo. The method, then:
Sprague-Dawley rats are a multipurpose model used for safety and efficacy evaluations. The rats were treated with Ionis modified oligonucleotides from the studies described in the Examples above and evaluated for changes in the levels of various plasma chemistry markers.

Data set [3] in a line: Tolerability in Sprague-Dawley rats, body and organ weights (Example 21). The format is in vivo. The settings on record: male Sprague-Dawley rats, 50 mg/kg s.c. weekly for 6 weeks (7 doses). The method, then:
Terminal body weight was measured prior to necropsy. Ionis oligonucleotides that caused any changes in organ weights outside the expected range for modified oligonucleotides were excluded from further studies.

Marks after values point to notes of the source that are not given here. Strand notation (5' to 3'): a small letter for the sugar, then the base; units joined by * are phosphorothioate-linked, units joined directly phosphodiester-linked; [ ] holds rarer units or linkages, { } end groups; capitals alone tell only the bases. k = constrained ethyl (cEt); [5mC] = 5-methylcytosine; d = 2'-deoxy (DNA)

Regarding “715487 (kA*kT*kT*dA*d[5mC]*dT*dT*d[5mC]*dA*dT*dA*dG*d[5mC]*kT*kT*kA) [compound 715487]”, the “Antiproliferative effect (cell proliferation, luminescence)” value (“Antiproliferative effect” for short) in data set [1] (oligonucleotide at 0.04 uM, sorafenib 0 uM) turned out to be 98 % UTC; in data set [1] (oligonucleotide at 0.04 uM, sorafenib 0.37 uM), 102 % UTC; in data set [1] (oligonucleotide at 0.04 uM, sorafenib 3.33 uM), 27 % UTC; in data set [1] (oligonucleotide at 0.04 uM, sorafenib 10 uM), 2 % UTC; in data set [1] (oligonucleotide at 0.04 uM, sorafenib […]), 93 % UTC; in data set [1] (oligonucleotide at 0.2 uM, sorafenib 0 uM) it was 93 % UTC. Moreover, the “Antiproliferative effect” value was found to be 94 % UTC in data set [1] (oligonucleotide at 0.2 uM, sorafenib 0.37 uM); 12 % UTC in data set [1] (oligonucleotide at 0.2 uM, sorafenib 3.33 uM); 2 % UTC in data set [1] (oligonucleotide at 0.2 uM, sorafenib 10 uM); 77 % UTC in data set [1] (oligonucleotide at 0.2 uM, sorafenib […]); 84 % UTC in data set [1] (oligonucleotide at 1 uM, sorafenib 0 uM); 83 % UTC in data set [1] (oligonucleotide at 1 uM, sorafenib 0.37 uM). The “Antiproliferative effect” value in data set [1] (oligonucleotide at 1 uM, sorafenib 3.33 uM) was 5 % UTC; in data set [1] (oligonucleotide at 1 uM, sorafenib 10 uM) it was 1 % UTC; in data set [1] (oligonucleotide at 1 uM, sorafenib […]), 45 % UTC; in data set [1] (oligonucleotide at 5 uM, sorafenib 0 uM), 64 % UTC; in data set [1] (oligonucleotide at 5 uM, sorafenib 0.37 uM) it was 64 % UTC; in data set [1] (oligonucleotide at 5 uM, sorafenib 3.33 uM) it was 3 % UTC. Further, the “Antiproliferative effect” value in data set [1] (oligonucleotide at 5 uM, sorafenib 10 uM) turned out to be 1 % UTC; in data set [1] (oligonucleotide at 5 uM, sorafenib […]), 23 % UTC.
Take “1076453 (GTAATATTGCAATCTG; 3-10-3 cEt gapmer, further chemistry not given here) [compound 1076453]”: in data set [2], the ALB was 3.14 g/dL, the ALT came out at 47 U/L, the AST came out at 77 U/L and the BUN was found to be 23 mg/dL. Also, the TBIL in data set [2] was determined as 0.13 mg/dL.
Take “958499 (ATTAGAGTATGTGGCA; 3-10-3 cEt gapmer, further chemistry not given here) [compound 958499]”: in data set [2], the ALB is given as 2.78 g/dL, the ALT was 61 U/L, the AST is given as 109 U/L and the BUN was 24 mg/dL. The same substance displayed a TBIL in data set [2] of 0.18 mg/dL.
“1198439 (AGTGTATGTCAGAAGA; sugar, 5-methylcytosine, phosphorothioate modifications, further chemistry not given here) [compound 1198439]”: in data set [3] (end of study), the Kidney weight was 3.68* g, the Liver weight is given as 17* g and the Spleen weight is 2.28* g. Further, the body weight in data set [3] (terminal, prior to necropsy) was 319* g.
